Results published in publication PMC8949503, “Radiosynthesis and Preclinical Evaluation of Bispecific PSMA/FAP Heterodimers for Tumor Imaging” (Pharmaceuticals, 2022).

Columns and labels:
[1] = tested on: A549-FAP tumor xenografts; assay: dynamic micro-PET imaging in A549-FAP tumor xenografts; type: in vivo; conditions: A549-FAP tumor-bearing nude mice, up to 2 h p.i.
Description: (§1) For the biodistribution and micro-PET imaging studies, male BALB/c nude mice (6–8 weeks) were subcutaneously inoculated with 1 × 10^7 22Rv1 or 5 × 10^6 A549-FAP cells in the right shoulder. Mice were imaged or used in the biodistribution studies when the tumor reached 5–10 mm in diameter.
Mice bearing xenografted 22Rv1 or A549FAP tumors (n = 3 per group) were anesthetized and placed in the prone position in a micro-PET scanner (Siemens, Erlangen, Germany). Dynamic PET/CT images were acquired 2 h post-injection (p.i.) with the radiotracer (5.55–11.1 MBq). The blocking experiments were performed by co-injecting 3 mg/kg of 2-PMPA for mice bearing 22Rv1 tumors or 3 mg/kg of DOTA-FAPI-04 for mice bearing A549-FAP tumors. The images were reconstructed using a three-dimensional ordered-subset expectation maximum algorithm and converted to %ID/g. Attenuation correction was performed using the unenhanced low-dose CT data. For data analysis, the regions of interest (ROIs) were manually drawn over the tumors and major organs on decay-corrected whole-body coronal images obtained using Inevon Research Workplace 4.1 software.

[2] = n-octanol/PBS partition coefficient (logD); type: physicochemical; conditions: PBS pH 7.4, ambient temperature
Description: An aliquot (74 kBq) of [^18F]AlF-PSMA-FAPI-01 or [^18F]AlF-PSMA-FAPI-02 was added to a centrifuge tube containing a mixture of phosphate-buffered solution (PBS, pH 7.4, 5.0 mL) and n-octanol (5.0 mL). The mixture was vigorously vortexed at ambient temperature for 5 min and then centrifuged (10,000 rpm, 5 min). Three samples (each 100 µL) from each phase underwent radioactivity measurement using a γ-counter (CAPRAC-R, Capintec, Inc., Ramsey, NJ, USA).

[3] = tested on: 22Rv1 tumor-bearing nude mice; assay: tissue biodistribution and blocking in 22Rv1 tumor-bearing nude mice; type: in vivo; conditions: 1 h p.i.; for 22Rv1 tumor* uptake, Blocked / Kidney* uptake, Blocked: co-injected 2-PMPA 3 mg/kg
Description: as §1
(§2) Mice bearing 22Rv1 or A549-FAP (n = 4 in each group) tumors were euthanized 60 min after intravenous administration of each tracer (740–1480 KBq/mouse). In the blocking group, the same experiment was conducted by co-injecting 50 μg of 2-PMPA for mice bearing 22Rv1 tumors or 50 μg of DOTA-FAPI-04 for mice bearing A549-FAP tumors. The organs of interest and tumors were quickly dissected and weighed. Radioactivity was assessed using a γ-counter and calculated as the percentage injected dose per gram (%ID/g).

[4] = tested on: A549-FAP tumor-bearing nude mice; assay: tissue biodistribution and blocking in A549-FAP tumor-bearing nude mice; type: in vivo; conditions: 1 h p.i.; for A549-FAP tumor uptake, Blocked / Blood uptake, Blocked / Bone uptake, Blocked / Brain uptake, Blocked / Gall bladder uptake, Blocked / Heart uptake, Blocked / Kidney uptake, Blocked / Liver uptake, Blocked / Lung uptake, Blocked / Muscle uptake, Blocked / Small intestine uptake, Blocked / Spleen uptake, Blocked / Stomach uptake, Blocked: co-injected DOTA-FAPI-04 3 mg/kg
Description: as §1, §2

A549-FAP cells [5] = assay: cell uptake and blocking study in A549-FAP cells; type: cell-based; conditions: for cell uptake, blocked: +DOTA-FAPI-04 (2.3 μM)
Description: PSMA-positive 22Rv1 cells (purchased from Institute of Biochemistry and Cell Biology, Shanghai, China) and stably FAP-transfected A549-FAP cells (acquired using lentiviral infection) were used for the cell-based experiments. The 22Rv1 cells were cultivated in RPMI-1640 medium (Gibco) at 37 °C/5% carbon dioxide, while the A549-FAP cells were cultivated in DMEM medium. Both media were supplemented with 10% heat-inactivated fetal bovine serum (FBS) and 1% penicillin/streptomycin (Gibco). Puromycin (1 µg/mL) was also added to the media to maintain FAP expression.
Cells were seeded in 12-well plates 2 days in advance to achieve a final confluence of approximately 80–90% (4–5 × 10^5 cells/well). The medium was displaced by 1 mL fresh medium without FBS. The method of cell studies was similar to a method reported previously. For the competitive binding experiments, cells were incubated with the known radiotracers ([^18F]FAPI-42 for the FAP receptor and [^18F]AlF-PSMA-BCH for PSMA) in the presence of 7 different concentrations (10^−5–10^−11 M) of the corresponding unlabeled heterodimers or corresponding monomer and incubated for 60 min at 37 °C. In all experiments, the cells were washed twice with PBS, lysed with 1 M NaOH, and counted using a γ-counter. IC50 values were calculated by fitting the data using a nonlinear regression algorithm (implemented in SPSS). For the radioligand binding studies, the cells were incubated for 5, 15, 30, 60, or 120 min at 37 °C after the addition of the heterodimer or corresponding monomeric radiotracer radiotracers. The blocking experiments were determined by adding the corresponding competitors (4.4 μM 2-PMPA for 22Rv1 cells and 2.3 μM DOTA-FAPI-04 for A549-FAP cells). Radioactivity was measured using a γ-counter, normalized to 1 million cells (1 mio cells), and calculated as the percentage of the applied dose (%ID/1 mio cells). For the internalization experiments, the cells were incubated with the radiolabeled compound for 60 min, washed twice with 1 mL PBS, and then incubated for 10 min with 1 mL glycine HCl (1 M, pH 2.2) to detach the extracellular bound tracer. Next, the cells were washed with PBS (2.0 mL) and lysed with 1 M NaOH (1.5 mL). The radioactivity of the acid wash solution (extracellularly bound tracer) and cell lysate (internalized tracer) was assessed separately using a γ-counter. For the efflux experiments, the radioactive medium was removed after 60 min incubation and replaced with non-radioactive medium. At predetermined time points of 15, 30, 60, and 120 min, the cells were washed with 1.0 mL PBS three times and then lysed. The radioactivity of the remaining cells was assessed using a γ-counter. Each experiment was conducted three times with three or four replicates per independent experiment.

A549-FAP cells [6] = assay: efflux in A549-FAP cells; type: cell-based; conditions: 2 h incubation
Description: (§3) Cells were seeded in 12-well plates 2 days in advance to achieve a final confluence of approximately 80–90% (4–5 × 10^5 cells/well). The medium was displaced by 1 mL fresh medium without FBS. The method of cell studies was similar to a method reported previously. For the competitive binding experiments, cells were incubated with the known radiotracers ([^18F]FAPI-42 for the FAP receptor and [^18F]AlF-PSMA-BCH for PSMA) in the presence of 7 different concentrations (10^−5–10^−11 M) of the corresponding unlabeled heterodimers or corresponding monomer and incubated for 60 min at 37 °C. In all experiments, the cells were washed twice with PBS, lysed with 1 M NaOH, and counted using a γ-counter. IC50 values were calculated by fitting the data using a nonlinear regression algorithm (implemented in SPSS). […] The blocking experiments were determined by adding the corresponding competitors (4.4 μM 2-PMPA for 22Rv1 cells and 2.3 μM DOTA-FAPI-04 for A549-FAP cells). Radioactivity was measured using a γ-counter, normalized to 1 million cells (1 mio cells), and calculated as the percentage of the applied dose (%ID/1 mio cells). […] The radioactivity of the acid wash solution (extracellularly bound tracer) and cell lysate (internalized tracer) was assessed separately using a γ-counter. […] The radioactivity of the remaining cells was assessed using a γ-counter. […]

22Rv1 cells = assay: efflux in 22Rv1 cells; type: cell-based; conditions: 2 h incubation
Description: as §3

## N#C[C@@H]1CC(F)(F)CN1C(=O)CNC(=O)c1ccnc2ccc(OCCCC(=O)NCCCC[C@H](NC(=O)CN3CCN4CCN(CC3)CC(=O)[O][Al]([18F])[O]C(=O)C4)C(=O)NCC3CCC(C(=O)N[C@H](Cc4ccc5ccccc5c4)C(=O)NCCCC[C@H](NC(=O)N[C@@H](CCC(=O)O)C(=O)O)C(=O)O)CC3)cc12 (some centres unmarked) [[^18F]AlF-PSMA-FAPI-01]
[1]
  time–activity curves (micro-PET): rapid uptake and excellent retention in tumors, as well as rapid clearance from non-target organs via the kidneys
[2]
  n-octanol/PBS distribution coefficient (logD): −2.74 ± 0.02
[3]
  22Rv1 tumor* uptake: 12.37 ± 0.40 %ID/g
  Kidney* uptake: 23.4 ± 9.22 %ID/g
  22Rv1 tumor* uptake, Blocked: 5.03 ± 0.75 %ID/g
  Kidney* uptake, Blocked: 2.85 ± 0.38 %ID/g
[4]
  A549-FAP tumor uptake: 6.40 ± 0.32 %ID/g
  Blood uptake: 2.36 ± 0.60 %ID/g
  Bone uptake: 4.09 ± 0.76 %ID/g
  Brain uptake: 0.16 ± 0.03 %ID/g
  Gall bladder uptake: 2.02 ± 0.40 %ID/g
  Heart uptake: 1.56 ± 0.14 %ID/g
  Kidney uptake: 23.88 ± 3.01 %ID/g
  Liver uptake: 1.38 ± 0.11 %ID/g
  Lung uptake: 1.82 ± 0.18 %ID/g
  Muscle uptake: 2.18 ± 0.48 %ID/g
  Small intestine uptake: 1.23 ± 0.21 %ID/g
  Spleen uptake: 0.99 ± 0.17 %ID/g
  Stomach uptake: 1.03 ± 0.13 %ID/g
  A549-FAP tumor uptake, Blocked: 1.38 ± 0.77 %ID/g
  Blood uptake, Blocked: 0.88 ± 0.62 %ID/g
  Bone uptake, Blocked: 1.53 ± 0.21 %ID/g
  Brain uptake, Blocked: 0.09 ± 0.03 %ID/g
  Gall bladder uptake, Blocked: 1.67 ± 0.32 %ID/g
  Heart uptake, Blocked: 0.41 ± 0.02 %ID/g
  Kidney uptake, Blocked: 28.65 ± 6.05 %ID/g
  Liver uptake, Blocked: 0.79 ± 0.37 %ID/g
  Lung uptake, Blocked: 1.66 ± 0.33 %ID/g
  Muscle uptake, Blocked: 0.32 ± 0.05 %ID/g
  Small intestine uptake, Blocked: 1.04 ± 0.53 %ID/g
  Spleen uptake, Blocked: 0.67 ± 0.20 %ID/g
  Stomach uptake, Blocked: 0.91 ± 0.43 %ID/g
A549-FAP cells [5]; 5 min
  cell uptake: 8.15 ± 0.31 % ID/1 million cells
  cell uptake, blocked: 0.67 ± 0.07 % ID/1 million cells
A549-FAP cells [5]; 15 min
  cell uptake: 16.57 ± 0.98 % ID/1 million cells
  cell uptake, blocked: 0.71 ± 0.09 % ID/1 million cells
A549-FAP cells [5]; 30 min
  cell uptake: 23.73 ± 0.33 % ID/1 million cells
  cell uptake, blocked: 0.77 ± 0.01 % ID/1 million cells
A549-FAP cells [5]; 60 min
  cell uptake: 30.36 ± 3.53 % ID/1 million cells
  cell uptake, blocked: 0.83 ± 0.09 % ID/1 million cells
A549-FAP cells [5]; 120 min
  cell uptake: 28.23 ± 2.97 % ID/1 million cells
  cell uptake, blocked: 1.16 ± 0.06 % ID/1 million cells

## N#C[C@@H]1CC(F)(F)CN1C(=O)CNC(=O)c1ccnc2ccc(OCCCN3CCN(C(=O)CCC(=O)NCCCC[C@H](NC(=O)CN4CCN5CCN(CC4)CC(=O)[O][Al]([18F])[O]C(=O)C5)C(=O)NC[C@H]4CC[C@H](C(=O)N[C@H](Cc5ccc6ccccc6c5)C(=O)NCCCC[C@H](NC(=O)N[C@@H](CCC(=O)O)C(=O)O)C(=O)O)CC4)CC3)cc12 [[^18F]AlF-PSMA-FAPI-02]
[1]
  time–activity curves (micro-PET): rapid uptake and excellent retention in tumors, as well as rapid clearance from non-target organs via the kidneys
[2]
  n-octanol/PBS distribution coefficient (logD): −2.04 ± 0.04
[3]
  22Rv1 tumor* uptake: 12.85 ± 2.43 %ID/g
  Kidney* uptake: 27.0 ± 11.9 %ID/g
  22Rv1 tumor* uptake, Blocked: 6.85 ± 1.53 %ID/g
  Kidney* uptake, Blocked: 2.94 ± 0.35 %ID/g
A549-FAP cells [6]
  cell efflux: lower cellular efflux
22Rv1 cells
  cell efflux: lower cellular efflux
[4]
  A549-FAP tumor uptake: 6.47 ± 0.76 %ID/g
  Blood uptake: 1.98 ± 0.46 %ID/g
  Bone uptake: 5.53 ± 0.18 %ID/g
  Brain uptake: 0.11 ± 0.03 %ID/g
  Gall bladder uptake: 2.23 ± 1.07 %ID/g
  Heart uptake: 0.84 ± 0.17 %ID/g
  Kidney uptake: 23.10 ± 7.91 %ID/g
  Liver uptake: 0.81 ± 0.22 %ID/g
  Lung uptake: 1.37 ± 0.22 %ID/g
  Muscle uptake: 1.35 ± 0.36 %ID/g
  Small intestine uptake: 0.84 ± 0.33 %ID/g
  Spleen uptake: 0.51 ± 0.16 %ID/g
  Stomach uptake: 0.83 ± 0.42 %ID/g
  A549-FAP tumor uptake, Blocked: 1.11 ± 0.88 %ID/g
  Blood uptake, Blocked: 0.57 ± 0.19 %ID/g
  Bone uptake, Blocked: 3.83 ± 0.02 %ID/g
  Brain uptake, Blocked: 0.07 ± 0.03 %ID/g
  Gall bladder uptake, Blocked: 1.39 ± 0.20 %ID/g
  Heart uptake, Blocked: 0.28 ± 0.07 %ID/g
  Kidney uptake, Blocked: 26.70 ± 10.80 %ID/g
  Liver uptake, Blocked: 0.41 ± 0.12 %ID/g
  Lung uptake, Blocked: 0.90 ± 0.24 %ID/g
  Muscle uptake, Blocked: 0.85 ± 0.39 %ID/g
  Small intestine uptake, Blocked: 0.55 ± 0.29 %ID/g
  Spleen uptake, Blocked: 0.30 ± 0.03 %ID/g
  Stomach uptake, Blocked: 0.37 ± 0.06 %ID/g
A549-FAP cells [5]; 5 min
  cell uptake: 11.66 ± 0.39 % ID/1 million cells
  cell uptake, blocked: 1.28 ± 0.08 % ID/1 million cells
A549-FAP cells [5]; 15 min
  cell uptake: 17.03 ± 0.85 % ID/1 million cells
  cell uptake, blocked: 1.29 ± 0.38 % ID/1 million cells
A549-FAP cells [5]; 30 min
  cell uptake: 23.26 ± 1.59 % ID/1 million cells
  cell uptake, blocked: 1.31 ± 0.16 % ID/1 million cells
A549-FAP cells [5]; 60 min
  cell uptake: 27.02 ± 2.21 % ID/1 million cells
  cell uptake, blocked: 1.59 ± 0.65 % ID/1 million cells
A549-FAP cells [5]; 120 min
  cell uptake: 32.55 ± 1.42 % ID/1 million cells
  cell uptake, blocked: 1.71 ± 0.23 % ID/1 million cells
